System: Mus musculus
Assay: Percentage increase of mice ear thickness at 10 ug/kg
Type: functional

| Structure (SMILES) | Increase [%] |
| --- | --- |
| O=c1cc(-c2ccc(O)cc2)oc2cc3c(c(O)c12)[C@@H]1O[C@H](CO)[C@@H](O)[C@H](O)[C@@H]1O3 | 30 |
| O=c1cc(-c2ccccc2)oc2cc3c(c(O)c12)[C@@H]1O[C@H](CO)[C@@H](O)[C@H](O)[C@@H]1O3 | 59 |
